Source: ChEMBL document CHEMBL4507269, “Data for DCP probe BAY-386” (2021)

Columns and labels:
[1] = molecular target: Protein-tyrosine kinase 2-beta (Homo sapiens) (UniProt Q14289); details: Compound concentration 1000.0 nM
[2] = molecular target: Serine/threonine-protein kinase TBK1 (Homo sapiens) (UniProt Q9UHD2); details: Compound concentration 1000.0 nM
[3] = molecular target: Ephrin type-B receptor 6 (Homo sapiens) (UniProt O15197); details: Compound concentration 1000.0 nM
[4] = molecular target: Serine/threonine-protein kinase 32B (Homo sapiens) (UniProt Q9NY57); details: Compound concentration 1000.0 nM
[5] = system: Hepatocyte growth factor receptor (Homo sapiens), P08581 [M1250T]; details: Compound concentration 1000.0 nM
[6] = molecular target: Serine/threonine-protein kinase 38 (Homo sapiens) (UniProt Q15208); details: Compound concentration 1000.0 nM
Sequence of Serine/threonine-protein kinase 38 (Homo sapiens) (Q15208 2-465 limits assumed): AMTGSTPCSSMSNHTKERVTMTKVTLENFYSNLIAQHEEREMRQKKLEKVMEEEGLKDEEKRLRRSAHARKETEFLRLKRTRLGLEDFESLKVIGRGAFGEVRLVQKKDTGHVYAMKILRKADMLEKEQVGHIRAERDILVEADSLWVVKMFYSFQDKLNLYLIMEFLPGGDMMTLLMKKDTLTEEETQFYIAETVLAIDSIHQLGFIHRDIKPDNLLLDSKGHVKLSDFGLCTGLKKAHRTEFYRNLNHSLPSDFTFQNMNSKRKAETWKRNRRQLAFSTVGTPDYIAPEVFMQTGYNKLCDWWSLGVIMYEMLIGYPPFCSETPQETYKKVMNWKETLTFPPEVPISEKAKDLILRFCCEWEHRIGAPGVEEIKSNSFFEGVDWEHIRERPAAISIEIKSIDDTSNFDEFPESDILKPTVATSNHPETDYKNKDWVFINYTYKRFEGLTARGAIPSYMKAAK

[7] = molecular target: Serine/threonine-protein kinase 26 (Homo sapiens) (UniProt Q9P289); details: Compound concentration 1000.0 nM
[8] = molecular target: Serine/threonine-protein kinase WNK2 (Homo sapiens) (UniProt Q9Y3S1); details: Compound concentration 1000.0 nM
[9] = molecular target: Serine/threonine-protein kinase 32A (Homo sapiens) (UniProt Q8WU08); details: Compound concentration 1000.0 nM
Sequence of Serine/threonine-protein kinase 32A (Homo sapiens) (Q8WU08 whole entry): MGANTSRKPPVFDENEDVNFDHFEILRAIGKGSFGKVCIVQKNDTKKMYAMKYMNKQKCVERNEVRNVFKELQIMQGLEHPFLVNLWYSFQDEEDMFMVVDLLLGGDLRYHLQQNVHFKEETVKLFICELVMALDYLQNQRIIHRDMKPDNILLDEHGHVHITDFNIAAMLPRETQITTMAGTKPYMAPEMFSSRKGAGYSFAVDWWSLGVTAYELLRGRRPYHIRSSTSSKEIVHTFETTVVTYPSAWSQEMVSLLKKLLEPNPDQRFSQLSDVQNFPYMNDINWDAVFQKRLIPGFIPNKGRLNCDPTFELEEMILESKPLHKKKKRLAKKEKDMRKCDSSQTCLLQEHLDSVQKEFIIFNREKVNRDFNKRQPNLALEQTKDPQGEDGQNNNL

[10] = molecular target: Ephrin type-A receptor 8 (Homo sapiens) (UniProt P29322); details: Compound concentration 1000.0 nM
[11] = molecular target: Beta-2 adrenergic receptor (Homo sapiens) (UniProt P07550); details: Compound concentration 10.0 uM
Sequence of Beta-2 adrenergic receptor (Homo sapiens) (P07550 whole entry, looked up, canonical isoform): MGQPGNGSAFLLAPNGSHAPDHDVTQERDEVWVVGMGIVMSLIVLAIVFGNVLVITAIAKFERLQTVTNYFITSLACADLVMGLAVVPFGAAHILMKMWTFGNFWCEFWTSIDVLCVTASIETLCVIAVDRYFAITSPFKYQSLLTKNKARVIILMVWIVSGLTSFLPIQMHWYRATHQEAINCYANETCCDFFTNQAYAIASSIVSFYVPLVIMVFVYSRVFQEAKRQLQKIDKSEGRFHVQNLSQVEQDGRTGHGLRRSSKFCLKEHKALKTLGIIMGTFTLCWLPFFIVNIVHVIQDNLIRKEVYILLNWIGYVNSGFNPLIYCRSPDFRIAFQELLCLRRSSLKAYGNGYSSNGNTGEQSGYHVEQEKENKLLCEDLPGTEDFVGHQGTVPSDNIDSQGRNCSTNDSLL

[12] = molecular target: 5'-AMP-activated protein kinase catalytic subunit alpha-2 (Homo sapiens) (UniProt P54646); details: Compound concentration 1000.0 nM
[13] = molecular target: Tyrosine-protein kinase BTK (Homo sapiens) (UniProt Q06187); details: Compound concentration 1000.0 nM
[14] = molecular target: NT-3 growth factor receptor (Homo sapiens) (UniProt Q16288); details: Compound concentration 1000.0 nM
[15] = molecular target: Calcium-dependent protein kinase 1 (Plasmodium falciparum) (UniProt P62344); details: Compound concentration 1000.0 nM
[16] = molecular target: Serine/threonine-protein kinase LATS2 (Homo sapiens) (UniProt Q9NRM7); details: Compound concentration 1000.0 nM
[17] = molecular target: RAC-beta serine/threonine-protein kinase (Homo sapiens) (UniProt P31751); details: Compound concentration 1000.0 nM
[18] = molecular target: Receptor tyrosine-protein kinase erbB-4 (Homo sapiens) (UniProt Q15303); details: Compound concentration 1000.0 nM
[19] = molecular target: Mitogen-activated protein kinase kinase kinase kinase 4 (Homo sapiens) (UniProt O95819); details: Compound concentration 1000.0 nM
[20] = molecular target: Ribosomal protein S6 kinase alpha-4 (Homo sapiens) (UniProt O75676); details: Compound concentration 1000.0 nM
[21] = system: Tyrosine-protein kinase ABL1 (Homo sapiens), P00519 [T315I]; details: Compound concentration 1000.0 nM
[22] = molecular target: Ephrin type-A receptor 3 (Homo sapiens) (UniProt P29320); details: Compound concentration 1000.0 nM
[23] = molecular target: Cyclin-dependent kinase-like 1 (Homo sapiens) (UniProt Q00532); details: Compound concentration 1000.0 nM
[24] = molecular target: BDNF/NT-3 growth factors receptor (Homo sapiens) (UniProt Q16620); details: Compound concentration 1000.0 nM
[25] = molecular target: Serine/threonine-protein kinase STK11 (Homo sapiens) (UniProt Q15831); details: Compound concentration 1000.0 nM
[26] = molecular target: Alpha-2B adrenergic receptor (Homo sapiens) (UniProt P18089); details: Compound concentration 10.0 uM
[27] = system: Tyrosine-protein kinase ABL1 (Homo sapiens), P00519 [E255K]; details: Compound concentration 1000.0 nM
[28] = molecular target: 5-hydroxytryptamine receptor 2B (Homo sapiens) (UniProt P41595); test: 5-HT2B (h) Eurofins-Cerep Cellular and Nuclear Receptor Functional Assays; details: Compound concentration 10.0 uM
Sequence of 5-hydroxytryptamine receptor 2B (Homo sapiens) (P41595 whole entry): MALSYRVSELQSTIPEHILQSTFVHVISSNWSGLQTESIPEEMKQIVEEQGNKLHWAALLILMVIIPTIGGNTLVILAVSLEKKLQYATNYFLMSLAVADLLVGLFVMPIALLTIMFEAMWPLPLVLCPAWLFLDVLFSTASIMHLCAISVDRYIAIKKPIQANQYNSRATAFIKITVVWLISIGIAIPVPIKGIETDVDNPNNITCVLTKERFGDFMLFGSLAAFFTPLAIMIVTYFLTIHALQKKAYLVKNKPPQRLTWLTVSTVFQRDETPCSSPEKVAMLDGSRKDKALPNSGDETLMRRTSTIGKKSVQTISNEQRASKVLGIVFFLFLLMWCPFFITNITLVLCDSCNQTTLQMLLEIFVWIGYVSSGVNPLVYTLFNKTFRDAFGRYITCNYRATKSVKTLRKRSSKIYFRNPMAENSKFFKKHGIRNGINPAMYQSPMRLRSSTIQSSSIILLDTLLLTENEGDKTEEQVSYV

[29] = molecular target: Uncharacterized serine/threonine-protein kinase SBK3 (Homo sapiens) (UniProt P0C264); details: Compound concentration 1000.0 nM
[30] = molecular target: Tyrosine-protein kinase JAK1 (Homo sapiens) (UniProt P23458); details: Compound concentration 1000.0 nM
Sequence of Tyrosine-protein kinase JAK1 (Homo sapiens) (P23458 whole entry, canonical isoform): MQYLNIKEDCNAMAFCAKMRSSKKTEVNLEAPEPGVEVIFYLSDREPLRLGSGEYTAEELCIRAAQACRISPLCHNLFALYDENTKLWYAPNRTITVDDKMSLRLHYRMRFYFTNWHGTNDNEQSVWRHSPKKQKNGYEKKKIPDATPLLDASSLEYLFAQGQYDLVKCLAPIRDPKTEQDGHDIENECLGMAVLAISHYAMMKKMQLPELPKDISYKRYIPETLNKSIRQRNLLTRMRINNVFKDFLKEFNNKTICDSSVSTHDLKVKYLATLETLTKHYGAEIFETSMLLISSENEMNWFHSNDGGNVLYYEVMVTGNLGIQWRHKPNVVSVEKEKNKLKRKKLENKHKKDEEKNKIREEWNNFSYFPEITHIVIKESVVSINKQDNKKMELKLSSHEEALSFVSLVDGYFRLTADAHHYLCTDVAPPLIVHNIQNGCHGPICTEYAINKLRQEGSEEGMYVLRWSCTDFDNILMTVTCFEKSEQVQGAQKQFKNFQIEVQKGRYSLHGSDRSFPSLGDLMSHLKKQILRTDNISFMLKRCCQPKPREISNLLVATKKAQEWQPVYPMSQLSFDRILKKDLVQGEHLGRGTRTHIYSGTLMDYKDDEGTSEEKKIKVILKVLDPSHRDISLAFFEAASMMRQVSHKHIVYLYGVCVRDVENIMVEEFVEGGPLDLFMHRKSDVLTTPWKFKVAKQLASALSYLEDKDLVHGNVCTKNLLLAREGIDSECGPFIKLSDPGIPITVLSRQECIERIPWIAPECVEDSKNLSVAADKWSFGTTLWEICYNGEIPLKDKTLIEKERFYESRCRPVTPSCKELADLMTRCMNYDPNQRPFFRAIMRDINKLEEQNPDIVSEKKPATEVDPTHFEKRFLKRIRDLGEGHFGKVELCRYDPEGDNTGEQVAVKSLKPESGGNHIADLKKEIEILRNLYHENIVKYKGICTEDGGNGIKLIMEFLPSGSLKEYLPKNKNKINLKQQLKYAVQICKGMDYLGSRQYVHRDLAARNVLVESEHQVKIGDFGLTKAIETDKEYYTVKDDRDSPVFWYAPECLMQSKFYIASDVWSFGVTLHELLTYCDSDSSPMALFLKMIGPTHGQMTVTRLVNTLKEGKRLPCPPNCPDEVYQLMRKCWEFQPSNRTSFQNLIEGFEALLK

[31] = system: Phosphatidylinositol 4,5-bisphosphate 3-kinase catalytic subunit alpha isoform (Homo sapiens), P42336 [I800L]; details: Compound concentration 1000.0 nM
[32] = molecular target: Cannabinoid receptor 1 (Homo sapiens) (UniProt P21554); test: CB1 (h) Eurofins-Cerep Cellular and Nuclear Receptor Functional Assays; details: Compound concentration 10.0 uM
Sequence of Cannabinoid receptor 1 (Homo sapiens) (P21554 whole entry): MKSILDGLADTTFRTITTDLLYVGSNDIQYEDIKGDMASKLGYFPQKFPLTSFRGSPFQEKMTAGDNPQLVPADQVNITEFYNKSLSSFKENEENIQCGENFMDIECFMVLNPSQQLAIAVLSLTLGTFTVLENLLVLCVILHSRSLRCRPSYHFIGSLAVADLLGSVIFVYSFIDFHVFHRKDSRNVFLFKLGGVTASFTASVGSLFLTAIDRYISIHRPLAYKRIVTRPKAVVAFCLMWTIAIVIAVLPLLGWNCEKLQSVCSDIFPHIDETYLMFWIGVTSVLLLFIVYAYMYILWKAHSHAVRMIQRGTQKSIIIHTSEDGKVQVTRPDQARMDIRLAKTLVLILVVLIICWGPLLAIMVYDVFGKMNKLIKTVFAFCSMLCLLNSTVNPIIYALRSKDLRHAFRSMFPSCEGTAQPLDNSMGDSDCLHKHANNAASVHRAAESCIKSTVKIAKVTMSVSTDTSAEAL

[33] = molecular target: Serine/threonine-protein kinase PAK 1 (Homo sapiens) (UniProt Q13153); details: Compound concentration 1000.0 nM
[34] = molecular target: Ribosomal protein S6 kinase alpha-2 (Homo sapiens) (UniProt Q15349); details: Compound concentration 1000.0 nM
Sequence of Ribosomal protein S6 kinase alpha-2 (Homo sapiens) (Q15349 whole entry): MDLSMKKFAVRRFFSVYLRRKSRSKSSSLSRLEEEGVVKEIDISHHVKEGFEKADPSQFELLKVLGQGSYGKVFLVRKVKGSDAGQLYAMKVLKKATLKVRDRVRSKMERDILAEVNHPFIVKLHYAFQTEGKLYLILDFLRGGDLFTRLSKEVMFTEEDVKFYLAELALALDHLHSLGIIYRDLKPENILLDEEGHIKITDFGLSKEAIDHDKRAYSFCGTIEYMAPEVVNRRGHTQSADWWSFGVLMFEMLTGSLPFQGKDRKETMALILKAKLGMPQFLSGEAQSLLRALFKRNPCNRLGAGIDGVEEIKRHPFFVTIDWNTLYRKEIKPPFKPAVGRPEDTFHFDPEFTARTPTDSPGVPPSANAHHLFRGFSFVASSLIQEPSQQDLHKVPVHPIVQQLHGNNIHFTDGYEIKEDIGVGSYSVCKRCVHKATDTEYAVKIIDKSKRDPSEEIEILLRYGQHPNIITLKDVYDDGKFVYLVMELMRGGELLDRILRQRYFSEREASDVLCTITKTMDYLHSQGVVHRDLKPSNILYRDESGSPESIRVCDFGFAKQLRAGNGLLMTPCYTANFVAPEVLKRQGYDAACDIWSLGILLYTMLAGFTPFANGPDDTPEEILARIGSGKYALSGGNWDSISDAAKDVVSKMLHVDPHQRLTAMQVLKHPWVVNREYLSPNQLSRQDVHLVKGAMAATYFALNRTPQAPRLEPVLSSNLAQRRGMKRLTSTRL

[35] = system: Mast/stem cell growth factor receptor Kit (Homo sapiens), P10721 [V559D,T670I]; details: Compound concentration 1000.0 nM
[36] = molecular target: Serine/threonine-protein kinase 24 (Homo sapiens) (UniProt Q9Y6E0); details: Compound concentration 1000.0 nM
[37] = molecular target: Serine/threonine-protein kinase N2 (Homo sapiens) (UniProt Q16513); details: Compound concentration 1000.0 nM
[38] = molecular target: Cyclin-dependent kinase 16 (Homo sapiens) (UniProt Q00536); details: Compound concentration 1000.0 nM
[39] = molecular target: Beta-2 adrenergic receptor (Homo sapiens) (UniProt P07550); test: beta2 (h) Eurofins-Cerep Cellular and Nuclear Receptor Functional Assays; details: Compound concentration 10.0 uM
[40] = molecular target: Phosphorylase b kinase gamma catalytic chain, skeletal muscle/heart isoform (Homo sapiens) (UniProt Q16816); details: Compound concentration 1000.0 nM
[41] = molecular target: Cyclin-dependent kinase 3 (Homo sapiens) (UniProt Q00526); details: Compound concentration 1000.0 nM
[42] = molecular target: High affinity nerve growth factor receptor (Homo sapiens) (UniProt P04629); details: Compound concentration 1000.0 nM
[43] = molecular target: Serine/threonine-protein kinase TAO1 (Homo sapiens) (UniProt Q7L7X3); details: Compound concentration 1000.0 nM
[44] = molecular target: Serine/threonine-protein kinase NLK (Homo sapiens) (UniProt Q9UBE8); details: Compound concentration 1000.0 nM

Sequence of Serine/threonine-protein kinase TBK1 (Homo sapiens) (Q9UHD2 whole entry): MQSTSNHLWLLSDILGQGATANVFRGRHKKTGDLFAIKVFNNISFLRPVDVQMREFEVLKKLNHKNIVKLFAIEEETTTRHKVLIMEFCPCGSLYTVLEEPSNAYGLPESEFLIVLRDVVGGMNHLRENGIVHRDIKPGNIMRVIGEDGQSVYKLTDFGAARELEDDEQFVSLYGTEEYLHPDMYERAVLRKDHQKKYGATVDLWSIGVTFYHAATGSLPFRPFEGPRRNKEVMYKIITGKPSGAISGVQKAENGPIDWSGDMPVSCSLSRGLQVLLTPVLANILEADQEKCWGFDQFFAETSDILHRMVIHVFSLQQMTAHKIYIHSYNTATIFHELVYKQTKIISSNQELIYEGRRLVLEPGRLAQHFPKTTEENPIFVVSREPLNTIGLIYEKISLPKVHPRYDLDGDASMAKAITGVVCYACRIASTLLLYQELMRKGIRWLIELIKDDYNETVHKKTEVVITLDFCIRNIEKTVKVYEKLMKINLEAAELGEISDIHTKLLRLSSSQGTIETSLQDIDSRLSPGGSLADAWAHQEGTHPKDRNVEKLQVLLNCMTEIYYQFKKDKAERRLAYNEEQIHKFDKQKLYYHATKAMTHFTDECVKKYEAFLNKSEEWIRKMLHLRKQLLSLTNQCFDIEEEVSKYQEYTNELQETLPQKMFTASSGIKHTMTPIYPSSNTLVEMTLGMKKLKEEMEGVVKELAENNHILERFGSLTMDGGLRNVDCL

SMILES: O=C(N1CCS(=O)(=O)CC1)N1C[C@H](c2ccc(OC(F)(F)F)cc2)C[C@H](c2nc(C3CC3)no2)C1 [BAY-386]
- residual activity [1]: 99%
- residual activity [2]: 94%
- residual activity [3]: 100%
- residual activity [4]: 100%
- residual activity [5]: 100%
- residual activity [6]: 100%
- residual activity [7]: 94%
- residual activity [8]: 73%
- residual activity [9]: 89%
- residual activity [10]: 100%
- inhibition [11]: 11.8%
- residual activity [12]: 100%
- residual activity [13]: 100%
- residual activity [14]: 100%
- residual activity [15]: 92%
- residual activity [16]: 100%
- residual activity [17]: 90%
- residual activity [18]: 95%
- residual activity [19]: 100%
- residual activity [20]: 100%
- residual activity [21]: 100%
- residual activity [22]: 100%
- residual activity [23]: 100%
- residual activity [24]: 94%
- residual activity [25]: 92%
- inhibition [26]: 2.41%
- residual activity [27]: 100%
- % Inhibition of Control Agonist Response (Mean n=2) [28]: 7%
- % of Control Agonist Response (Mean n=2) [28]: 1.6%
- residual activity [29]: 98%
- residual activity [30]: 100%
- residual activity [31]: 68%
- % Inhibition of Control Agonist Response (Mean n=2) [32]: 80.7%
- % of Control Agonist Response (Mean n=2) [32]: -267%
- residual activity [33]: 100%
- residual activity [34]: 100%
- residual activity [35]: 100%
- residual activity [36]: 97%
- residual activity [37]: 100%
- residual activity [38]: 100%
- % Inhibition of Control Agonist Response (Mean n=2) [39]: -6.9%
- % of Control Agonist Response (Mean n=2) [39]: -1.7%
- residual activity [40]: 94%
- residual activity [41]: 96%
- residual activity [42]: 87%
- residual activity [43]: 100%
- residual activity [44]: 100%

SMILES: Cc1noc([C@H]2C[C@@H](c3ccc(C(F)(F)F)cc3)CN(C(=O)N3CCS(=O)(=O)C3)C2)n1 [BAY-448]
- residual activity [1]: 100%
- residual activity [2]: 68%
- residual activity [3]: 73%
- residual activity [4]: 68%
- residual activity [5]: 100%
- residual activity [6]: 100%
- residual activity [7]: 74%
- residual activity [8]: 100%
- residual activity [9]: 100%
- residual activity [10]: 100%
- inhibition [11]: 24%
- residual activity [12]: 66%
- residual activity [13]: 96%
- residual activity [14]: 100%
- residual activity [15]: 82%
- residual activity [16]: 100%
- residual activity [17]: 96%
- residual activity [18]: 100%
- residual activity [19]: 100%
- residual activity [20]: 100%
- residual activity [21]: 69%
- residual activity [22]: 100%
- residual activity [23]: 100%
- residual activity [24]: 83%
- residual activity [25]: 100%
- inhibition [26]: -2.77%
- residual activity [27]: 100%
- % Inhibition of Control Agonist Response (Mean n=2) [28]: -3%
- % of Control Agonist Response (Mean n=2) [28]: 0.4%
- residual activity [29]: 84%
- residual activity [30]: 74%
- residual activity [31]: 100%
- % Inhibition of Control Agonist Response (Mean n=2) [32]: -0.6%
- % of Control Agonist Response (Mean n=2) [32]: -17.6%
- residual activity [33]: 79%
- residual activity [34]: 92%
- residual activity [35]: 100%
- residual activity [36]: 100%
- residual activity [37]: 100%
- residual activity [38]: 100%
- % Inhibition of Control Agonist Response (Mean n=2) [39]: 10.2%
- % of Control Agonist Response (Mean n=2) [39]: 2.3%
- residual activity [40]: 100%
- residual activity [41]: 100%
- residual activity [42]: 90%
- residual activity [43]: 100%
- residual activity [44]: 70%
